# Source: US20120027819A1, “Medical Devices Incorporating a Bioactive and Methods of Preparing Such Devices” (priority 2006, published 2012)
# What was measured:
# [1] = Exposure of coated ureteral stent to water / aqueous environment (FIGS. 8, 10); format: physicochemical
# Excerpt: (§1) An approximately 0.6% solution of bupivacaine having a tertiary amine in the non-ionic form (formula (2a) above) in dichloromethane was loaded into a syringe mounted onto a syringe pump and connected to a tube that carried the solution to an ultrasonic nozzle (Model 06-05108—Sono-Tek Co., Poughkeepsie, N.Y. 12547.) A nozzle was 6 mm diameter, 11 mm long and used with a nominal frequency of 120 kHz. Air was purged from the solution line and the spray nozzle primed with the solution. The coating chamber was purged with nitrogen to attain an oxygen concentration below 100 ppm. The solution was sprayed onto ureteral stent substrates 20 to 280 mm long (polyurethane double pigtail soflex ureteral stent, Cook Incorporated (Bloomington, Ind.)). A smooth, uniform coating was observed. Control stents were coated with the same concentration of Bupivacaine.HCl using the above coating method.
# FIGS. 8-11 depict photomicrographs of the coatings showing the uniformity and tenacity of the non-ionic coatings, in contrast to the water-soluble ionic coatings. […] FIG. 9 depicts a relatively rough, crystalline coating 91 of bupivacaine-HCl on a ureteral stent 90, on the left, and the same stent after a one-minute ex vivo exposure to a pig ureter.
# FIG. 11 then depicts the same type of stent 110 with a coating 114 of the non-ionic form of bupivacaine after 24 hours in an ex vivo test with a pig ureter.
# [2] = cited from earlier work
# [3] = cited from earlier work; remark: listed apart in the source
# [4] = Elution of bupivacaine from spray-coated ureteral stents in aqueous buffers (Example 1, FIG. 7); format: physicochemical; conditions: for time to release/elute from coated stent (in words): ionic form coated on stent, aqueous environment, same conditions, hydrochloride
# Excerpt: as §1
# The stents were placed in solutions at different pH values to test the elution of bupivacaine over time. […] Acetic acid/sodium acetate was used for the pH 4.5 buffer, 0.1M phosphate-buffered solution (PBS) for the pH 7.0 buffer, and sodium carbonate for the pH 9.5 buffer.
state of coating after aqueous exposure ([1]; exposed to an aqueous environment for several days),"period over which release from ureteral stent occurs ([4]; non-ionic form coated on ureteral stent, buffers pH 4.5, 7.0, 9.5)",state of coating after dipping in water ([1]; dipped in water for one minute),time to release/elute from coated stent (in words) [4],time to release/elute from coated stent (in words) ([4]; listed as bupivacaine.HCl),Compound,"solubility ([2]; base or non-ionic form, water)",water solubility (in words) [2],"pKa ([3]; Table 1, acidic proton of proton binding site)",pKa of acidic proton of proton binding site ([3]; in water),effect of eluting solution pH on elution rate ([4]; increasing the pH from 4.5 to 9.5)
virtually no effect on the coating,about 12 days,–,–,–,"CCCCN1CCCCC1C(=O)Nc1c(C)cccc1C (stereo not drawn) [bupivacaine, 1-Butyl-N-(2,6-dimethylphenyl)-2-piperidinecarboxamide]",about 0.2 mg/mL,only very slightly soluble in water,8.09,about 8,slightly slowed the rate of bupivacaine elution
–,–,–,–,–,C[C@@H]1C[C@H]2[C@@H]3CCC4=CC(=O)C=C[C@]4(C)[C@@]3(F)[C@@H](O)C[C@]2(C)[C@@]1(O)C(=O)CO [Dexamethasone],–,practically insoluble in water,–,–,–
–,–,substantially dissolved,within a matter of minutes,eluted fully within minutes,"CCCCN1CCCCC1C(=O)Nc1c(C)cccc1C.Cl (stereo not drawn) [Bupivacaine.HCl, 1-butyl-N-(2,6-dimethylphenyl)-2-piperidinecarboxamide hydrochloride]",–,soluble in water,–,–,–
